# Data published in PMC7646200 (Xenobiotica; the fate of foreign compounds in biological …, 2020).
# Legend:
# mouse liver cytosol = assay: Sulfonation of 7-hydroxycoumarin derivatives by mouse liver cytosol; settings: for sulfonation rate: 10 μM substrate; for Vmax: mouse liver cytosol, value (95 % confidence interval)
# in vitro [1] = settings: both, Beagle, dog, pH 7.4
# in vitro [2] = settings: male, Wistar, rat, pH 7.4
# sheep liver cytosol = assay: Sulfonation of 7-hydroxycoumarin derivatives by sheep liver cytosol; settings: sheep liver cytosol; value (95 % confidence interval)
# dog liver cytosol = assay: Sulfonation of 7-hydroxycoumarin derivatives by dog liver cytosol; settings: dog liver cytosol; for intrinsic clearance (Vmax/Km): rank among species; for Vmax: value (95 % confidence interval)
# in vitro [3] = settings: DBA/2N/Kuo, mouse, pH 7.4
# in vitro [4] = settings: female, sheep, pH 7.4
# in vitro [5] = settings: male, human, pH 7.4
# in vitro [6] = settings: female, pig, pH 7.4
# rabbit liver cytosol = assay: Sulfonation of 7-hydroxycoumarin derivatives by rabbit liver cytosol; settings: rabbit liver cytosol; value (95 % confidence interval)
# pig liver cytosol = assay: Sulfonation of 7-hydroxycoumarin derivatives by pig liver cytosol; settings: pig liver cytosol; value (95 % confidence interval)
# human liver cytosol = assay: Sulfonation of 7-hydroxycoumarin derivatives by human liver cytosol; settings: human liver cytosol; value (95 % confidence interval)
# in vitro [7] = settings: female, Dutch belted, rabbit, pH 7.4
# rat liver cytosol = assay: Sulfonation of 7-hydroxycoumarin derivatives by rat liver cytosol; settings: rat liver cytosol; value (95 % confidence interval)
sulfonation rate (mouse liver cytosol; female mouse liver cytosol),sulfonation rate (mouse liver cytosol; male mouse liver cytosol),Km (in vitro [1]) [µM],Km (in vitro [2]) [µM],intrinsic clearance (Vmax/Km) (dog liver cytosol),Km (in vitro [3]) [µM],Km (in vitro [4]) [µM],Km (in vitro [5]) [µM],Km (in vitro [6]) [µM],Km (in vitro [7]) [µM],SMILES,Vmax (mouse liver cytosol),Vmax (sheep liver cytosol),Vmax (dog liver cytosol),Vmax (rabbit liver cytosol),Vmax (pig liver cytosol),Vmax (human liver cytosol),Vmax (rat liver cytosol)
Slow,Slow,0.62,1.1,highest,0.11,0.46,24,6.4,0.65,"Cc1c(C)c2ccc(O)cc2oc1=O [compound 4, 3,4-dimethyl-7-hydroxycoumarin]",17 (14–20) nmol/(min * g protein),300 (230–370) nmol/(min * g protein),330 (250–420) nmol/(min * g protein),13 (0–28) nmol/(min * g protein),67 (18–120) nmol/(min * g protein),210 (0–1300) nmol/(min * g protein),380 (140–620) nmol/(min * g protein)
,,0.22,0.57,highest,1.2,9.8,0.11,1.3,3.4,"COc1ccc(-c2cc3ccc(O)cc3oc2=O)cc1 [compound 11, 3-(4-methoxyphenyl)-7-hydroxycoumarin]",100 (84–150) nmol/(min * g protein),410 (190–620) nmol/(min * g protein),300 (150–710) nmol/(min * g protein),190 (100–260) nmol/(min * g protein),5.5 (3.3–7.8) nmol/(min * g protein),18 (12–23) nmol/(min * g protein),210 (190–260) nmol/(min * g protein)
